Legend:
[1] = test system: PS2 NTF; experiment: Cycloheximide time course of PS2 fragment production in PS2 inducible cells with or without UBQLN1 transfection; type: cell-based, human
Protocol: (A) Time course experiment using ponA-induced PS2 cell line cultures transfected with or without UBQLN1 expression plasmids were treated with […] cycloheximide for 0-6 hours. Equal amounts of protein lysate were separated by 8.5% SDS-PAGE and subsequently immunoblotted with anti-UBQLN antibody. Transfected cells reveal a 4-fold increase in UBQLN1 levels. Next, the protein lysates were immunoblotted using anti-PS2 NH,-terminal antibody to detect FL and NTF PS2 levels, as indicated. Note both FL PS2 turnover and NTF production levels in transfected versus untransfected cell lysates.
(B) Same experiment as (A) except FL PS expression was not induced using PonA.
(C) Graphs showing relative levels of PS2 polypeptides in PS2 inducible cell lysates after densitometric analysis of the immunoreactive bands shown in panels A and B. The levels were calculated by normalization of the signals relative to that in Lane 1. The Microsoft Excel program was used to produce a best-fit line for each graph. […] However, this is completely opposite of NTF levels. UBQLN not only decreases NTF levels at every time-point in the experiment, but it also slows the rate of NTF production, as determined by measuring the slope of each line.
HeLa and HEK293 cells were grown in DMEM supplemented with 10% FBS. PS1 and S2 inducible cell lines were generated by transfection of the pERV-expressing HEK293 cell line (Stratgene, IaIolla, Calif.) with FL human PS2 cDNA under the control of ponasteroneA (PonA)-inducible cassette in plasmid pEGSH (Stratagene). Stable integration of the pEGSH plasmid was achieved by selection for hygromycin resistance. PS expression was induced by adding PonA (final cont. 10 pM) to the medium. For proteasome inhibition studies, cultures were treated with 40 uM MG132 (Calbiochem, San Diego, Calif.) for time periods as indicated. […]
To this end, protein synthesis was inhibited using cyclohexamide (CHX) and PS fragment production was monitored over a six-hour time period in UBQLN transfected and untransfected lysates that were either induced or uninduced for PS expression. […]

[2] = test system: GFP-HttQ74-3 and GFP-HttQ28-2 HeLa cell lines; experiment: Ubiquilin-1 transfection of stable GFP-HttPolyQ HeLa cell lines, serum withdrawal-induced cell death and aggregates; type: cell-based
Text: FIG. 11. […] The 28Q-2 and 74Q-3 were used in most of our studies. The asterisk corresponds to a non-specific band that is detected by the GFP antibody. • B. Representative fluorescent images of GFP-HttPolyQ(28)-2 and GFP-HttPolyQ(74)-3 stable cell lines. Note that GFP fluorescence is located in both the cytoplasm and the nucleus, but that compact foci are only seen in the GFP-HttPolyQ(74)-3 cells. • C. Cells expressing expanded polyglutamine proteins are more sensitive to H2O2. The GFP-HftPolyQ(28)-2 and GFP-HttPolyQ(74)-3 stable cell lines were exposed to 200 μM concentration of H2O2 and after 5 hr, the cells were stained with both Hoechest 33342 and PI. The cells stained by PI represent the dead cells whereas all the nuclei are identified by Hoechst 33342 staining. • D. Graph showing percentage of cell death after the cells were exposed to different concentrations of H2O2 for 5 hr. Percentages of cell death calculated by determining the ratio of PI-positively stained cells to that of Hoechst-stained cells. There was a significant difference in cell death upon exposure of GFP-HttPolyQ(28)-2 and GFP-HttPolyQ(74)-3 to 100 μM, 150 μM, or 200 μM of H2O2 (p<0.001). • E. Representative images showing that overexpression of ubiquilin-1 protects GFP-HttPolyQ(74)-3 expressing cells against serum withdrawal-induced cell death. Cells stably expressing GFP-HttPolyQ(28) or GFP-HttPolyQ(74) were transiently transfected with or without (mock transfection) plasmids encoding ubiquilin-1 by the calcium phosphate coprecipitation method. […] Cell death was quantified as described in D above. • H. Representative images showing that ubiquilin-1 overexpression protects GFP-HttPolyQ(74)-3 expressing cells against serum withdrawal-induced cell death, in a dose-dependent manner. […] After 5 hours of serum withdrawal and 30 hours following the transfection, the amount of cell death was analyzed by staining cells with both PI and Hoechst 33342. • I. Graph showing quantification of cell death in the experiments described in H. • J. Immunoblot showing overexpression of increasing amounts of ubiquilin-1 cDNA in the GFP-HttPolyQ(74)-3 cell line reduces GFP-aggregates trapped in the stacking gel after SDS-PAGE. […] Bottom panel: Quantification of the spot intensity determined in three independent experiments.
HeLa cells were grown in DME supplemented with 10% FBS. […] Stable cell lines were identified by GFP-fluorescence.
Cell death was monitored either through examination of the nuclear morphology observed after Hoechst 33342 (1 μg/ml) staining, or through detecting the membrane selective permeability following 3 μM of propidium iodide (PI) staining. […]

## UBQLN1: PS-interacting protein ubiquilin-1, overexpressed in cells from a cDNA expression plasmid
[1]; PS induced and uninduced cells treated with CHX
  rate of PS2 NTF production: slows the rate of PS2 NTF production
[1]; transfected vs untransfected, UBQLN immunoblot
  UBQLN1 overexpression level in transfected lysates: 4 fold
[2]; GFP-HttPolyQ(74)-3 cells, 2, 3 and 6 μg vs mock or 1 μg
  spot intensity of GFP-aggregates, filter retardation assay: significantly lower
[2]; GFP-HttQ28-2 cell line
  cell death, ubiquilin-1-transfected vs mock-transfected: no significant difference in cell death
[2]; GFP-HttQ74-3 cell line
  protection against cell death with increasing amounts of plasmid: dose-dependent protection against cell death
[2]; GFP-HttQ74-3 cell line, 24 hours after transfection and serum deprivation, vs untransfected
  reduction in cell death: approximately 50%

— patent publication US20110166206A1, “UBIQUILIN REGULATION OF PRESENILIN ENDOPROTEOLYSIS, AND SUPPRESSION OF POLYGLUTAMINE-INDUCED TOXICITY IN CELLS” (UNIVERSITY OF MARYLAND BIOTECHNOLOGY INSTITUTE, priority 2005, published 2011)
